Test results from patent US20240116988A1, “ANTI-ROR1 MACROCYCLIC PEPTIDES AND COMPOSITIONS” (BRISTOL-MYERS SQUIBB COMPANY, priority 2022, published 2024).
Positions of bridges follow the written chain, without caps; N, C: chain ends. Non-standard residues stand in square brackets, D forms with d. Residues, ends and D or L forms follow the SMILES beside them. ξ: configuration not given here. NMeF = CN[C@@H](Cc1ccccc1)C(=O)O; Ile(3ξ) = CCC(C)[C@H](N)C(=O)O

Biological target: T1, human ROR1 (Homo sapiens, UniProt Q01973)
T1 construct: host or cells: HEK 293T cells, Tet-on system induced with doxycycline
Experiment: ROR1 high content cell-based binding assay
Settings: read-out: ROR1 Binding 293T Human HC Cell Based Assay IC50
Procedure: ROR1 high content cell-based binding assay: Human embryonic kidney 293T cells (293T) expressing human ROR1 with Tet-on system by doxycycline were used (Arctic-488134) for the assessment of inhibition of the binding of fluorescently-labeled competing peptide (“Probe”) that specifically binds to human ROR1. […] Cryopreserved vials were thawed in a 37° C. water bath. Cells were washed in assay culture media [DMEM (Life Technologies Inc. Cat. […] Cat. No. 15140-122) and […] dox] and diluted 1.0×10^5 cells/mL. Cells were seeded into PDL-coated 384 well plates (BD Falcon Cat. No. 356663) at 2,000 cells/20 μL. Plates were allowed to incubate for 10 minutes at room temperature and then transferred to a 37° C./5% CO2 incubator for overnight incubation. The next day, 125 nL of the test compound was added using an ECHO followed by the addition of 5 μL/well of 5-FAM-labeled probe to cells at a final concentration of 30 nM. Sample were incubated for 1 hour at 37° C. for 1 hour, followed by 3 washes in […] of dPBS. Cells were fixed by adding 8% (w/v) formaldehyde (Sigma Cat. No. 252549), 20 μg/mL Hoechst (Thermo Scientific Cat. No. 62249) in PBS for 20 minutes at room temperature. The plates were washed 3 more times in dPBS and 15 μl of PBS was left in the wells following the last wash. The plates were sealed, and data was using obtained using a CellInsight NXT High Content Screening Platform IC903000 (Thermo Scientific).

T1 sequence (Q01973 30-937): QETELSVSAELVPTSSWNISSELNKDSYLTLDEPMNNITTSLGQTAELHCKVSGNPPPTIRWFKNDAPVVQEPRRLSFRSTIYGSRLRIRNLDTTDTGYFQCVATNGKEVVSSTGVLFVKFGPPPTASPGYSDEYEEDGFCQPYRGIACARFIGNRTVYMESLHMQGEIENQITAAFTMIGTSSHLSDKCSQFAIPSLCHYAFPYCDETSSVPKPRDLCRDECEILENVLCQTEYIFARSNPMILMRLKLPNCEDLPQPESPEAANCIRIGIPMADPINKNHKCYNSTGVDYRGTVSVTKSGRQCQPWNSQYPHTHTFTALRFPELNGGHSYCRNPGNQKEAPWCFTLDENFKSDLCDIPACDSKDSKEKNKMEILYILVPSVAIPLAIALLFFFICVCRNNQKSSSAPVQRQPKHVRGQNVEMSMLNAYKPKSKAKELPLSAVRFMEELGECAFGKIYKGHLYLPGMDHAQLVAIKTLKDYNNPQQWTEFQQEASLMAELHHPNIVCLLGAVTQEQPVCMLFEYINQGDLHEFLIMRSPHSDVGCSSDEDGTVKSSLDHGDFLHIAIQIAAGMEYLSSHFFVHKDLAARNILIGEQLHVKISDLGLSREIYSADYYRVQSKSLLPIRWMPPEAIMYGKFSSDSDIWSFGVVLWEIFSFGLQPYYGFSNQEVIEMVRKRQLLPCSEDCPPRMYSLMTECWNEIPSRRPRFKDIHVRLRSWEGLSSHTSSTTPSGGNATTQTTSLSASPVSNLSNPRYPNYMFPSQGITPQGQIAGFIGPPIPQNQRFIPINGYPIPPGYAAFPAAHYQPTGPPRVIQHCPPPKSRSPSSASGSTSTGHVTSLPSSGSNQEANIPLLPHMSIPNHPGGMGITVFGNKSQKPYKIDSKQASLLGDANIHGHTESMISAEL

| IC50 [nM] | Structure (SMILES) |
| --- | --- |
| 7 | CC(C)C[C@@H]1NC(=O)[C@H](Cc2ccc(O)cc2)NC(=O)[C@H](Cc2ccccc2)NC(=O)CSC[C@@H](C(N)=O)NC(=O)[C@H](CC(C)C)NC(=O)[C@H](Cc2ccccc2)N(C)C(=O)[C@H](Cc2ccc(O)cc2)NC(=O)[C@H](Cc2c[nH]c3ccccc23)NC(=O)CNC(=O)[C@H](CO)NC(=O)[C@H](Cc2ccc(O)cc2)NC(=O)[C@H](C(C)C)NC1=O [Example 1036] ({CH2CO}-FYLVYSGWY[NMeF]LC-NH2; thioether N-12) |
| 251 | CC(C)C[C@@H]1NC(=O)[C@H](Cc2ccc(O)cc2)NC(=O)[C@H](C)NC(=O)CSC[C@@H](C(=O)NCC(N)=O)NC(=O)[C@H](CC(C)C)NC(=O)[C@H](Cc2ccccc2)N(C)C(=O)[C@H](Cc2ccc(O)cc2)NC(=O)[C@H](Cc2c[nH]c3ccccc23)NC(=O)CNC(=O)[C@H](CO)NC(=O)[C@H](Cc2ccc(O)cc2)NC(=O)[C@H](C(C)C)NC1=O [Example 1037] ({CH2CO}-AYLVYSGWY[NMeF]LCG-NH2; thioether N-12) |
| 23 | CC(C)C[C@@H]1NC(=O)[C@H](C)NC(=O)[C@H](Cc2ccccc2)NC(=O)CSC[C@@H](C(=O)NCC(N)=O)NC(=O)[C@H](CC(C)C)NC(=O)[C@H](Cc2ccccc2)N(C)C(=O)[C@H](Cc2ccc(O)cc2)NC(=O)[C@H](Cc2c[nH]c3ccccc23)NC(=O)CNC(=O)[C@H](CO)NC(=O)[C@H](Cc2ccc(O)cc2)NC(=O)[C@H](C(C)C)NC1=O [Example 1038] ({CH2CO}-FALVYSGWY[NMeF]LCG-NH2; thioether N-12) |
| 681 | CC(C)C[C@@H]1NC(=O)[C@H](Cc2ccc(O)cc2)NC(=O)[C@H](Cc2ccccc2)NC(=O)CSC[C@@H](C(=O)NCC(N)=O)NC(=O)[C@H](CC(C)C)NC(=O)[C@H](Cc2ccccc2)N(C)C(=O)[C@H](C)NC(=O)[C@H](Cc2c[nH]c3ccccc23)NC(=O)CNC(=O)[C@H](CO)NC(=O)[C@H](Cc2ccc(O)cc2)NC(=O)[C@H](C(C)C)NC1=O [Example 1039] ({CH2CO}-FYLVYSGWA[NMeF]LCG-NH2; thioether N-12) |
| 17 | CC(C)C[C@@H]1NC(=O)[C@H](Cc2ccccc2)N(C)C(=O)[C@H](Cc2ccc(O)cc2)NC(=O)[C@H](Cc2c[nH]c3ccccc23)NC(=O)CNC(=O)[C@H](CO)NC(=O)[C@H](Cc2ccc(O)cc2)NC(=O)[C@H](C(C)C)NC(=O)[C@H](C)NC(=O)[C@H](Cc2ccc(O)cc2)NC(=O)[C@H](Cc2ccccc2)NC(=O)CSC[C@@H](C(=O)NCC(N)=O)NC1=O [Example 1040] ({CH2CO}-FYAVYSGWY[NMeF]LCG-NH2; thioether N-12) |
| 12 | CC(C)C[C@@H]1NC(=O)[C@H](Cc2ccc(O)cc2)NC(=O)[C@H](Cc2ccccc2)NC(=O)CSC[C@@H](C(=O)NCC(N)=O)NC(=O)[C@H](CC(C)C)NC(=O)[C@H](Cc2ccccc2)N(C)C(=O)[C@H](Cc2ccc(O)cc2)NC(=O)[C@H](Cc2c[nH]c3ccccc23)NC(=O)CNC(=O)[C@H](CO)NC(=O)[C@H](Cc2ccc(O)cc2)NC(=O)[C@H](C)NC1=O [Example 1041] ({CH2CO}-FYLAYSGWY[NMeF]LCG-NH2; thioether N-12) |
| 31 | CC(C)C[C@@H]1NC(=O)[C@H](Cc2ccc(O)cc2)NC(=O)[C@H](Cc2ccccc2)NC(=O)CSC[C@@H](C(=O)NCC(N)=O)NC(=O)[C@H](C)NC(=O)[C@H](Cc2ccccc2)N(C)C(=O)[C@H](Cc2ccc(O)cc2)NC(=O)[C@H](Cc2c[nH]c3ccccc23)NC(=O)CNC(=O)[C@H](CO)NC(=O)[C@H](Cc2ccc(O)cc2)NC(=O)[C@H](C(C)C)NC1=O [Example 1042] ({CH2CO}-FYLVYSGWY[NMeF]ACG-NH2; thioether N-12) |
| 38 | CC(C)C[C@@H]1NC(=O)[C@H](Cc2ccc(O)cc2)NC(=O)[C@H](Cc2ccccc2)NC(=O)CSC[C@@H](C(=O)NCC(N)=O)NC(=O)[C@H](CC(C)C)NC(=O)[C@H](Cc2ccccc2)N(C)C(=O)[C@H](Cc2ccc(O)cc2)NC(=O)[C@H](Cc2c[nH]c3ccccc23)NC(=O)CNC(=O)[C@H](Cc2ccccc2)NC(=O)[C@H](Cc2ccc(O)cc2)NC(=O)[C@H](C(C)C)NC1=O [Example 1043] ({CH2CO}-FYLVYFGWY[NMeF]LCG-NH2; thioether N-12) |
| 38 | CC(C)C[C@@H]1NC(=O)[C@H](Cc2ccc(O)cc2)NC(=O)[C@H](C(C)C)NC(=O)[C@H](CC(C)C)NC(=O)[C@H](Cc2ccc(O)cc2)NC(=O)[C@H](Cc2ccccc2)NC(=O)CSC[C@@H](C(=O)NCC(N)=O)NC(=O)[C@H](CC(C)C)NC(=O)[C@H](Cc2ccccc2)N(C)C(=O)[C@H](Cc2ccc(O)cc2)NC(=O)[C@H](Cc2c[nH]c3ccccc23)NC(=O)CNC1=O [Example 1044] ({CH2CO}-FYLVYLGWY[NMeF]LCG-NH2; thioether N-12) |
| 9 | CC(C)C[C@@H]1NC(=O)[C@H](Cc2ccc(O)cc2)NC(=O)[C@H](Cc2ccccc2)NC(=O)CSC[C@@H](C(=O)NCC(N)=O)NC(=O)[C@H](CC(C)C)NC(=O)[C@H](Cc2ccccc2)N(C)C(=O)[C@H](Cc2ccc(O)cc2)NC(=O)[C@H](Cc2c[nH]c3ccccc23)NC(=O)CNC(=O)[C@H](Cc2ccc(O)cc2)NC(=O)[C@H](Cc2ccc(O)cc2)NC(=O)[C@H](C(C)C)NC1=O [Example 1045] ({CH2CO}-FYLVYYGWY[NMeF]LCG-NH2; thioether N-12) |
| 6 | CC(C)C[C@@H]1NC(=O)[C@H](Cc2ccccc2)N(C)C(=O)[C@H](Cc2ccc(O)cc2)NC(=O)[C@H](Cc2c[nH]c3ccccc23)NC(=O)CNC(=O)[C@H](CO)NC(=O)[C@H](Cc2ccc(O)cc2)NC(=O)[C@H](C(C)C)NC(=O)[C@H](CCCNC(=N)N)NC(=O)[C@H](Cc2ccc(O)cc2)NC(=O)[C@H](Cc2ccccc2)NC(=O)CSC[C@@H](C(=O)NCC(N)=O)NC1=O [Example 1046] ({CH2CO}-FYRVYSGWY[NMeF]LCG-NH2; thioether N-12) |
| 243 | CC(C)C[C@@H]1NC(=O)[C@H](Cc2ccc(O)cc2)NC(=O)[C@H](Cc2ccccc2)NC(=O)CSC[C@@H](C(=O)NCC(N)=O)NC(=O)[C@H](CC(C)C)NC(=O)[C@H](Cc2ccccc2)N(C)C(=O)[C@H](Cc2ccc(O)cc2)NC(=O)[C@H](Cc2c[nH]c3ccccc23)NC(=O)[C@H](CCCNC(=N)N)NC(=O)[C@H](CO)NC(=O)[C@H](Cc2ccc(O)cc2)NC(=O)[C@H](C(C)C)NC1=O [Example 1047] ({CH2CO}-FYLVYSRWY[NMeF]LCG-NH2; thioether N-12) |
| 666 | CC(C)C[C@@H]1NC(=O)[C@H](Cc2ccc(O)cc2)NC(=O)[C@H](Cc2ccccc2)NC(=O)CSC[C@@H](C(=O)NCC(N)=O)NC(=O)[C@H](CC(C)C)NC(=O)[C@H](Cc2ccccc2)N(C)C(=O)[C@H](Cc2ccc(O)cc2)NC(=O)[C@H](Cc2c[nH]c3ccccc23)NC(=O)CNC(=O)[C@@H](C)NC(=O)[C@H](Cc2ccc(O)cc2)NC(=O)[C@H](C(C)C)NC1=O [Example 1048] ({CH2CO}-FYLVY[dA]GWY[NMeF]LCG-NH2; thioether N-12) |
| 19 | CC[C@H](C)[C@@H]1NC(=O)[C@H](Cc2ccccc2)NC(=O)CSC[C@@H](C(N)=O)NC(=O)[C@H](C)NC(=O)[C@H](Cc2ccc(O)cc2)NC(=O)[C@H](Cc2ccc(O)cc2)NC(=O)[C@H](Cc2c[nH]c3ccccc23)NC(=O)CNC(=O)[C@H](Cc2ccc(O)cc2)NC(=O)[C@H](CCCNC(=N)N)NC(=O)[C@H](C(C)C)NC(=O)[C@H](Cc2c[nH]c3ccccc23)NC1=O [Example 1049] ({CH2CO}-FIWVRYGWYYAC-NH2; thioether N-12) |
| 15 | CCC(C)[C@@H]1NC(=O)[C@H](Cc2c[nH]c3ccccc23)NC(=O)[C@H](Cc2ccccc2)NC(=O)[C@H](Cc2ccc(O)cc2)NC(=O)[C@@H](Cc2ccccc2)NC(=O)CSC[C@@H](C(N)=O)NC(=O)[C@H](C)NC(=O)[C@H](C(C)CC)NC(=O)[C@H](C(C)C)NC(=O)[C@H](Cc2c[nH]c3ccccc23)NC(=O)[C@H](CCCNC(=N)N)NC(=O)CNC1=O (some centres unmarked) [Example 1050] ({CH2CO}-[dF]YFW[Ile(3ξ)]GRWV[Ile(3ξ)]AC-NH2; thioether N-12) |
| 172 | CC(C)C[C@@H]1NC(=O)[C@H](CCCNC(=N)N)NC(=O)[C@H](Cc2ccccc2)NC(=O)CSC[C@@H](C(=O)NCC(N)=O)NC(=O)[C@H](CC(C)C)NC(=O)[C@H](Cc2ccccc2)N(C)C(=O)[C@H](Cc2ccc(O)cc2)NC(=O)[C@H](Cc2c[nH]c3ccccc23)NC(=O)CNC(=O)[C@H](CO)NC(=O)[C@H](Cc2ccc(O)cc2)NC(=O)[C@H](C(C)C)NC1=O [Example 1051] ({CH2CO}-FRLVYSGWY[NMeF]LCG-NH2; thioether N-12) |
| 367 | CC(C)C[C@@H]1NC(=O)[C@H](Cc2ccccc2)N(C)C(=O)[C@H](Cc2ccc(O)cc2)NC(=O)[C@H](Cc2c[nH]c3ccccc23)NC(=O)CNC(=O)[C@H](CO)NC(=O)[C@H](Cc2ccc(O)cc2)NC(=O)[C@H](C(C)C)NC(=O)[C@H](CCC(=O)O)NC(=O)[C@H](Cc2ccc(O)cc2)NC(=O)[C@H](Cc2ccccc2)NC(=O)CSC[C@@H](C(=O)NCC(N)=O)NC1=O [Example 1052] ({CH2CO}-FYEVYSGWY[NMeF]LCG-NH2; thioether N-12) |
